Key:
dermal fibroblasts = experiment: Hyaluronan pericellular coat formation by dermal fibroblasts (particle exclusion assay); type: cell-based, human
From the text: (§1) A normal adult skin biopsy (6 mm) was obtained (n=1), with informed consent, from an individual attending the Oral Surgery Clinic, School of Dentistry, Wales College of Medicine, Cardiff. Following the application of a local anaesthetic, the dermal biopsy was collected and adult dermal fibroblast cultures established by single cell suspension technique, following enzymic degradation of the specimen. This technique has previously been reliably used to establish viable primary cultures of both oral and dermal fibroblasts in vitro (Cook et al, 2000; Stephens et al, 2001; 2003). Dermal fibroblasts were cultured in Fibroblast-Serum Containing Medium, containing Dulbecco's Modified Eagle's Medium (DMEM), supplemented with L-glutamine (2 mM), antibiotics (100 U/ml) penicillin G sodium, […] streptomycin sulphate and 0.25 μg/ml amphotericin B) and 10% foetal calf serum (all purchased from Invitrogen Ltd., Paisley, U.K.). Dermal fibroblast cultures were maintained at 37° C., in a 5% CO2/95% air atmosphere, with the culture medium being changed every 2-3 days. Dermal fibroblasts were used between) passage 7-17, for all experiments.
Following trypsinization, dermal fibroblasts were seeded in 53 mm bacteriological grade culture dishes (VWR International Ltd., Leicestershire, U.K.), in PEP005-free, Fibroblast-Serum Containing Medium (2 ml), at a density of 7×10^4 cell/dish. Dermal fibroblasts were maintained at 37° C., in a 5% CO2/95% air atmosphere, overnight, prior to washing in PBS (2×2 ml) and maintenance in serum-free, Fibroblast-Serum Containing Medium (2 ml), containing 0 μg/ml, 0.01 μg/ml, 0.1 μg/ml, 1 μg/ml, 10 μg/ml or 100 μg/ml PEP005, +/−TGF-β1 (10 ng/ml) (three culture dishes per PEP005 concentration). A control was also established, consisting of cells in serum-free, Fibroblast-Serum Containing Medium, containing 1% DMSO. The dermal fibroblasts were maintained at 37° C., in a 5% CO2/95% air atmosphere, for 24 h or 72 h. At 24 h and 72 h, the culture dishes were treated with formalized horse blood erythrocytes (TCS Biosciences Ltd., Buckinghamshire, U.K.). The formalized horse blood erythrocytes were washed in PBS, to remove sodium azide (3×20 ml) and centrifuged at 100 g/7 min, at 4° C. The erythrocyte cell pellet obtained was re-suspended in serum-free, Fibroblast-Serum Containing Medium, to a density of 1×10^8 cells/ml. Aliquots of the erythrocyte cell suspension (500 μl) were supplemented to each culture dish and the dishes agitated, prior to maintenance at 37° C., in a 5% CO2/95% air atmosphere, for 15 min. Zones of erythrocyte exclusion were visualized by light microscopy, using a Zeiss Axiovery 135 Inverted Microscope (Carl Zeiss Ltd., Hertfordshire, U.K.), with a Hamamatsun C5985 chilled CCD camera (Hamamatsu Photonics U.K. Ltd., Hertfordshire, U.K.) and using Openlab Software 3.0.8 (Improvision Ltd., Warwickshire, U.K.). Each experiment was performed on three separate occasions.

HAS1 = HAS1 gene expression by dermal fibroblasts (qPCR); type: cell-based, human
From the text: as §1
Following trypsinization, dermal fibroblasts were seeded in 24-well tissue culture plates, in PEP005-free, Fibroblast-Serum Containing Medium (1 ml), at a cell density of 2.5×10^4 cell/well. Dermal fibroblasts were maintained at 37° C., in a 5% CO2/95% air atmosphere, overnight. At this stage, the culture medium was replaced with Fibroblast-Serum Containing Medium (600 μl), containing 0 μg/ml, 0.01 μg/ml, 0.1 μg/ml, 1 μg/ml, 10 μg/ml or 100 μg/ml PEP005, +/−TGF-β1 (10 ng/ml) (three culture wells per PEP005 concentration). A control was also established, consisting of cells in Fibroblast-Serum Containing Medium, containing 1% DMSO. The dermal fibroblasts were maintained at 37° C., in a 5% CO2/95% air atmosphere, for 24 h or 72 h, prior to washing in PBS (3×1 ml) and Trizol® Reagent (250 μl) added to the cells, for 5 min at room temperature, to induce cell lysis. RNA was extracted by the phenol-chloroform method, as described above, while a cDNA library was generated via random hexamer RT, as described above. RNA (1 μg) was added to 100 µM random hexamer (1 μl), 5×RT Buffer (4 μl), 2.5 mM Deoxynucleoside Triphosphates (dNTPs, 5 μl), 2 μl DTT and Nuclease-Free Water, were added to the reaction (total volume, 20 μl). To denature the RNA, reaction tubes were placed in a GeneAmp PCR System 9700 (Applied Biosystems, Cheshire, U.K.) and heated for 5 min/95° C., prior to cooling to 4° C. Superscript (1 μl) and RNAsin® Ribonuclease Inhibitor (1 μl, Promega, Hampshire, U.K.) were added to each tube, and the tubes subjected to […] at 20° C. for 10 min, 42° C. for 1 h and 95° C. for 5 min, prior to storage at 4° C., until required. As a negative control, RT was also performed, with Nuclease-Free Water replacing the RNA sample.
qPCR was performed, as described above, with the probe and primers for HAS1, HAS2 and HAS3 (target genes) and the 18s ribosomal RNA (reference gene), designed and supplied by Applied Biosystems. PCR was performed in a final volume of 20 μl/sample, with each reaction mix consisting of cDNA (1 μl), target gene primers and probe (1 μl), Taqman® FAST Universal PCR Master Mix (10 μl, Applied Biosystems), and Nuclease-Free Water (8 μl). PCR amplification was performed, using an initial cycle of 95° C. for 1 s, followed by 40 cycles of 60° C. for 20 s. A cDNA-free control was also included. Again, the comparative CT method was used for relative quantification of gene expression. Each experiment was performed on three separate occasions.

C/C=C(/C)C(=O)O[C@H]1C(C)=C[C@]23C(=O)[C@@H](C=C(CO)[C@@H](O)[C@]12O)[C@H]1[C@@H](C[C@H]3C)C1(C)C [PEP005, ingenol-3-angelate]
changes in cellular morphology (dermal fibroblasts; PEP005 0.01-10 μg/ml plus TGF-β1 (10 ng/ml), 72 h): consistent with the presence of myofibroblasts
hyaluronan pericellular coat formation (dermal fibroblasts; PEP005 0.01-10 μg/ml plus TGF-β1 (10 ng/ml), 72 h, compared to PEP005-free controls): even further enhanced
morphological changes in fibroblasts (dermal fibroblasts; PEP005 0.01-10 μg/ml, absence of TGF-β1, 72 h): consistent with the presence of myofibroblasts
hyaluronan pericellular coat size (dermal fibroblasts; PEP005 0.01-10 μg/ml, absence of TGF-β1, 72 h, compared to PEP005-free controls): increase pericellular coat size
hyaluronan pericellular coat formation (dermal fibroblasts; PEP005-treated cultures, absence of TGF-β1, 24 h): little pericellular coat formation
hyaluronan pericellular coat formation (dermal fibroblasts; PEP005 plus TGF-β1 (10 ng/ml), 24 h, compared to untreated controls and to PEP005 without TGF-β1): major synergistic effect
HAS1 expression (HAS1; PEP005 0.01-100 μg/ml plus TGF-β1 (10 ng/ml), 24 h, p<0.05 at 0.01 μg/ml, p<0.01 at 100 μg/ml): general down-regulation
HAS1 expression (HAS1; PEP005 0.01-100 μg/ml plus TGF-β1 (10 ng/ml), 72 h, non-significant (p>0.05)): general down-regulation
HAS1 expression (HAS1; PEP005, absence of TGF-β1, 24 h): no obvious effects
HAS1 expression (HAS1; PEP005, absence of TGF-β1, 72 h): no obvious effects

— US10143638B2, “Method of treating skin with ingenol mebutate” (LEO Laboratories Limited, priority 2009, dated 2018)
